Results as given in article PMC11945486, “TAS1R2/TAS1R3 Single-Nucleotide Polymorphisms Affect Sweet Taste Receptor Activation by Sweeteners: The SWEET Project” (Nutrients, 2025).

Target: T1, human TAS1R2-C9S (subunit alone) (Homo sapiens, UniProt Q8TE23)
T1 construct: expressed in transfected cells; host or cells: HEK293T-Gα16gust44
T1 sequence (Q8TE23 20-839): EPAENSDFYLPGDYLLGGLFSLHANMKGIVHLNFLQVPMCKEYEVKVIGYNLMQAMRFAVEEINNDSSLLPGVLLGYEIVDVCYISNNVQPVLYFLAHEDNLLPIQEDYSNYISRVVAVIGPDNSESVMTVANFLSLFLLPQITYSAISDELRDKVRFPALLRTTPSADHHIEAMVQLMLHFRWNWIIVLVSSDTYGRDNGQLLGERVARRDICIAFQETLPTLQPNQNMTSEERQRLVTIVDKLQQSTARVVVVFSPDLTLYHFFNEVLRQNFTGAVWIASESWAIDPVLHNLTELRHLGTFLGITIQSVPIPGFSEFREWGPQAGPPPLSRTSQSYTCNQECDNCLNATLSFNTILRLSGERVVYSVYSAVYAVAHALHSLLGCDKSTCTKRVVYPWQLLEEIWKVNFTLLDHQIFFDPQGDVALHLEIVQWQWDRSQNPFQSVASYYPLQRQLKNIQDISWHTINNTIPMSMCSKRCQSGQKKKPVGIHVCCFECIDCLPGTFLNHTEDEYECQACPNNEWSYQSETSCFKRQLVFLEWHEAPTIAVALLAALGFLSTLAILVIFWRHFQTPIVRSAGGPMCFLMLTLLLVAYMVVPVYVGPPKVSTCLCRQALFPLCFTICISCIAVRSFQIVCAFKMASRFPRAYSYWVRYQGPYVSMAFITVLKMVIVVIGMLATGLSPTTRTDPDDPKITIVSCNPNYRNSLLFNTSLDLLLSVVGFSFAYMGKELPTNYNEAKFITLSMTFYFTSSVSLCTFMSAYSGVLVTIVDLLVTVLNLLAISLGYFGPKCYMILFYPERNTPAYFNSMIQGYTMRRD
Assay: Calcium mobilisation assay, TAS1R2-C9S subunit alone
Assay type: cell-based
Text: The coding sequences for TAS1R2 and TAS1R3 were commercially synthesised, and the human codon was optimised for expression in human cells. The coding sequences of human TAS1R2 and TAS1R3 were subcloned and inserted into the mammalian expression vectors pcDNA6/myc-HisA and pcDNA4/myc-HisA (Invitrogen; Thermo Fisher Scientific; Illkirch, France) between the EcoRI and NotI restriction sites, generating the plasmids pcDNA6-TAS1R2 and pcDNA4-TAS1R3, respectively. To increase protein expression in mammalian cells, an upstream start codon was used, which was a sequence called MAX, corresponding to the QBI SP163 element also described in pcDNA4-HisMax (Invitrogen; Thermo Fisher Scientific; Illkirch, France). To measure the expression level of the receptor by immunohistochemistry, we used the FLAG sequence ([…]) in the C-terminal position, which encodes the FLAG tag epitope. […]
The HEK293T cells were kindly provided by Jay P. Slack (Givaudan Flavors Corporation; Cincinnati, OH, USA). […] The fluorescence intensity was measured for 90 s (excitation 488 nm, emission 510 nm) in an automated fluorometric FlexStation®3 Multi-Mode microplate reader (Molecular Devices; San Jose, CA, USA). […] The Ca^2+ changes were expressed as fractional changes in fluorescent light intensity: ΔF/F = (F − F0)/F0, where F was the fluorescent light intensity at each point, and F0 was the value of emitted fluorescent light prior to stimulus application. To calculate dose–response relationships, the changes in fluorescence upon stimulus application were averaged, mock-subtracted and baseline-corrected. […] The half-maximal effective concentrations (EC50 values) and maximal signal amplitudes were calculated using SigmaPlot software (version 15.0) (Systat Software; San Jose, CA, USA).
For in vitro calcium mobilisation assay performed on hTAS1R2-SNPs, hTAS1R3-SNPs and mTAS1R3-I60T, 6 to 7 concentrations were tested for each sweet compound, plus buffer alone. All concentration–receptor combinations were measured in duplicate, and each experiment was repeated at least 4 times (8 wells/concentration). […]

EC50: 190 ± 26.6 µM
R1 = Variant EC50/WT EC50: 2.1
Max ΔF/F0 (maximal signal amplitude): 0.44 ± 0.02
Compound: C=C(C)[C@@H]1CC=C(/C=N/O)CC1 [Perillartine, perillartine]
